For orientation: melting point means the temperature, or range, at which the solid turns liquid. For the compound `Cc1[nH]c(C=C2C(=O)NN=C2C2CC2)c(C)c1CN1CCOCC1` [Example 97, 3-Cyclopropyl-4-[(3,5-dimethyl-4-morpholinomethylpyrrol-2-yl)methylene]-2-pyrazolin-5-one], the melting point fell in the range of 175 to 177 °C.
Next, `Cc1c[nH]c(C=C2C(=O)NN=C2c2cnccn2)c1C` [Example 98, 4-[(3,4-dimethylpyrrol-2-yl)methylene]-3-pyrazinyl-2-pyrazolin-5-one]: 245 to 250 °C.
As for `Cc1c(CCC(=O)O)c[nH]c1C=C1C(=O)NN=C1C1CC1` [Example 99, 4-{[4-(2-Carboxyethyl)-3-methylpyrrol-2-yl]methylene}-3-cyclopropyl-2-pyrazolin-5-one], the melting point was 290 °C (dec.).
Next, `Cc1[nH]c(C=C2C(=O)NN=C2C2CC2)c(C)c1CN(C)C` [Example 100, 3-Cyclopropyl-4-[(3,5-dimethyl-4-dimethylaminomethylpyrrol-2-yl)methylene]-2-pyrazolin-5-one]: 176 to 178 °C; `COC(=O)CCC1=NNC(=O)C1=Cc1ccc[nH]1` [Example 103, 3-(2-Methoxycarbonylethyl)-4-[(pyrrol-2-yl)methylene]-2-pyrazolin-5-one]: 134 to 136 °C.
Next, `CCOC(=O)C1=NNC(=O)C1=Cc1ccc[nH]1` [Example 104, 3-Ethoxycarbonyl-4-[(pyrrol-2-yl)methylene]-2-pyrazolin-5-one]: 177 to 179 °C; `CC(C)C1=NNC(=O)C1=Cc1ccc[nH]1` [Example 105, 3-Isopropyl-4-[(pyrrol-2-yl)methylene]-2-pyrazolin-5-one]: 120 to 122 °C.
`O=C1NN=C(C2CCCCC2)C1=Cc1ccc[nH]1` [Example 107, 3-Cyclohexyl-4-[(pyrrol-2-yl)methylene]-2-pyrazolin-5-one] registered a melting point of 176 to 178 °C.
`O=C1NN=C(C2CC2)C1=Cc1ccc(CN2CCOCC2)[nH]1` [Example 109, 3-Cyclopropyl-4-[(5-morpholinomethylpyrrol-2-yl)methylene]-2-pyrazolin-5-one] displayed a melting point of 184 to 186 °C.
Take `O=C1NN=C(C2CC2)C1=Cc1ccc(C(=O)O)[nH]1` [Example 110, 4-[(5-Carboxypyrrol-2-yl)methylene]-3-cyclopropyl-2-pyrazolin-5-one]: the melting point is 220 °C (dec.).
In turn, `CCOC1=NNC(=O)C1=Cc1cc(Cl)c[nH]1` [Example 111, 4-[(4-Chloropyrrol-2-yl)methylene]-3-ethoxy-2-pyrazolin-5-one] had a melting point of 237 to 239 °C.
`CCOC1=NNC(=O)C1=Cc1cc(Br)c[nH]1` [Example 112, 4-[(4-Bromopyrrol-2-yl)methylene]-3-ethoxy-2-pyrazolin-5-one] registered a melting point of 242 to 244 °C.
`CCOC1=NNC(=O)C1=Cc1ccc(Cl)[nH]1` [Example 113, 4-[(5-Chloropyrrol-2-yl)methylene]-3-ethoxy-2-pyrazolin-5-one] showed a melting point of 170 to 172 °C.
Turning to `O=C1NN=C(C2CC2)C1=Cc1cc(Cl)c[nH]1` [Example 114, 4[(4-Chloropyrrol-2-yl)methylene]-3-cyclopropyl-2-pyrazolin-5-one], the melting point was 220 °C (dec.).
In the case of `O=C1NN=C(C2CC2)C1=Cc1cc(Br)c[nH]1` [Example 115, 4-[(4-Bromopyrrol-2-yl)methylene]-3-cyclopropyl-2-pyrazolin-5-one], the melting point was 210 °C (dec.).
With `Cc1[nH]c(C=C2C(=O)NN=C2c2cnccn2)c(C)c1C(=O)O` [Example 118, 4-[(4-Carboxy-3,5-dimethylpyrrol-2-yl)methylene]-3-pyrazinyl-2-pyrazolin-5-one], the melting point fell in the range of 225 to 228 °C.
As for `Cc1[nH]c(C=C2C(=O)NN=C2C2CC2)c(C)c1C(=O)OCCN(C)C` [Example 119, 3-Cyclopropyl-4-{[3,5-dimethyl-4-(2-dimethylaminoethyloxycarbonyl)pyrrol-2-yl]methylene}-2-pyrazolin-5-one], the figure is 172 to 174 °C; as for `Cc1[nH]c(C=C2C(=O)NN=C2c2cnccn2)c(C)c1C(=O)OCCN(C)C` [Example 120, 4-{[3,5-Dimethyl-4(2-dimethylaminoethyloxycarbonyl)pyrrol-2-yl]methylene}-3-pyrazinyl-2-pyrazolin-5-one], 223 to 225 °C.
`Cc1[nH]c(C=C2C(=O)NN=C2c2cnccn2)c(C)c1CN(C)C` [Example 121, 4-[(3,5-Dimethyl-4-dimethylaminomethylpyrrol-2-yl)methylene]-3-pyrazinyl-2-pyrazolin-5-one] yielded a melting point of 220 to 222 °C.
Next, `Cc1[nH]c(C=C2C(=O)NN=C2c2cnccn2)c(C)c1CN(C)C.O=C(O)/C=C\C(=O)O` [Example 122, 4-[(3,5-Dimethyl-4-dimethylaminomethylpyrrol-2-yl)methylene]-3-pyrazinyl-2-pyrazolin-5-one maleate]: 206 to 210 °C; `Cc1cc(C)c(C=C2C(=O)NN=C2c2ccccn2)[nH]1` [Example 124, 4-[(3,5-Dimethylpyrrol-2-yl)methylene]-3-(2-pyridyl)-2-pyrazolin-5-one]: 228 to 230 °C; `CCc1c(C)[nH]c(C=C2C(=O)NN=C2c2ccccn2)c1C` [Example 125, 4-[(3,5-Dimethyl-4-ethylpyrrol-2-yl)methylene]-3-(2-pyridyl)-2-pyrazolin-5-one]: 184 to 186 °C.
`Cc1cc(C)c(C=C2C(=O)NN=C2c2ccco2)[nH]1` [Example 127, 4-[(3,5-dimethylpyrrol-2-yl)methylene]-3-(2-furyl)-2-pyrazolin-5-one] showed a melting point of 235 to 237 °C.
`Cc1[nH]c(C=C2C(=O)NN=C2c2cnccn2)c(C)c1CN1CCOCC1` [Example 128, 4-[(3,5-dimethyl-4-morpholinomethylpyrrol-2-yl)methylene]-3-pyrazinyl-2-pyrazolin-5-one] gave a melting point of 274 to 277 °C.
As for `Cc1cc(C)c(C=C2C(=O)NN=C2c2cccs2)[nH]1` [Example 129, 4-[(3,5-dimethylpyrrol-2-yl)methylene]-3-(2-thienyl)-2-pyrazolin-5-one], the figure is 235 to 237 °C; as for `CCOC(=O)c1c[nH]c(C=C2C(=O)NN=C2C2CC2)c1` [Example 130, 3-Cyclopropyl-4-[(4-ethoxycarbonylpyrrol-2-yl)methylene]-2-pyrazolin-5-one], 192 to 194 °C; as for `Cc1[nH]c(C=C2C(=O)NN=C2C2CC2)c(C)c1CNC(=O)C(F)(F)F` [Example 131, 3-Cyclopropyl-4-[(3,5-dimethyl-4-trifluoroacetamidomethylpyrrol-2-yl)methylene]-2-pyrazolin-5-one], 278 to 280 °C.
`Cc1[nH]c(C=C2C(=O)NN=C2C2CC2)c(C)c1CN` [Example 132, 3-Cyclopropyl-4-[(4-aminomethyl-3,5-dimethylpyrrol-2-yl)methylene]-2-pyrazolin-5-one] showed a melting point of 217 to 219 °C.
Next, `Cc1cc(C)c(C=C2C(=O)NN=C2c2nc3ccccc3s2)[nH]1` [Example 133, 3-(Benzothiazol-2-yl)-4-[(3,5-dimethylpyrrol-2-yl)methylene]-2-pyrazolin-5-one]: 295 to 297 °C.
